Read-outs that look alike come from different tables or passages of the source. Marks after values point to notes of the source that are not given here.
What was measured:
Format in all cases: in vivo
[1] = system: minimal muscular or neurological impairment; test: Toxicity (TOX), rotorod procedure, mice
[2] = system: kindled motor seizure; test: Hippocampus kindling screen; conditions: Rats IP, 50 mg/kg after 1.0 h
Source text: The hippocampus kindling screen is a useful adjunct to the traditional MES and scMet tests for identification of a substance potential utility for treating complex partial seizures. […] No toxic effects were observed as indicated by the lack of motor impairment on the rats tested.

[3] = system: 6 Hz psychomotor seizure; test: Minimal clonic seizure (6 Hz) test; conditions: Mice IP; for 6 Hz, animals protected/tested: 100 m/k; for ED50: Mus musculus, ip
Procedure, shortened: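 Mice dosed ip with test compound before 6 Hz corneal-type electrical stimulation lasting 3 s. Protection scored as absence of minimal clonic phase and stereotyped automatistic behaviour seen in untreated animals.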

[4] = Toxicity (TOX), minimal motor deficit, rats; conditions: in vivo; Rat IP
[5] = system: minimal motor deficit (ataxia, abnormal gait); test: Toxicity (TOX), minimal motor deficit, rats; conditions: for TOX (Rotorod Test), animals toxic/tested: Rat IP, 100 mg/kg; for Tox, animals toxic/tested: 50 mg/kg
[6] = system: MES-induced seizures; test: Maximal electroshock test (MES), mice
[7] = system: Metrazol-induced clonic seizures; test: Subcutaneous Metrazol test (scMet), mice
[8] = system: MES-induced seizures; test: Maximal electroshock test (MES), rats; conditions: Rat PO; for MES, animals protected/tested: 30 mg/kg
Protocol: The benzodiazepine derivative compounds selective for GABAa receptor subunits were tested for the ability to suppress seizures in several standard rat and mouse models of epilepsy. […] The standard models incorporated into anticonvulsant screening include the maximal electroshock test (MES), the subcutaneous Metrazol test (scMet), and evaluations of toxicity (TOX). The data for each condition is presented as a ratio of either the number of animals protected or toxic (loss of locomotor activity) over the number of animals tested at a given time point and dose.
The MES is a model for generalized tonic-clonic seizures and provides an indication of a compound's ability to prevent seizure spread when all neuronal circuits in the brain are maximally active. These seizures are highly reproducible and are electrophysiologically consistent with human seizures. For all tests based on MES convulsions, 60 Hz of alternating current (50 mA in mice, 150 in rats) is delivered for by corneal electrodes which have been primed with an electrolyte solution containing an anesthetic agent (0.5% tetracaine HCL). For Test 1, mice are tested at various intervals following doses of 30, 100 and 300 mg/kg of test compound given by ip injection of a volume of 0.01 mL/g. In Test 2, rats are tested after a dose of 30 mg/kg (po) in a volume of 0.04 mL/g. Test 8 uses varying doses administered via i.p. injection, again in a volume of 0.04 ml/g. […] In Antiepileptic Drugs, Levy, R. H. M., Meldrum, B. S., Eds.; Raven Press: New York, pp 99-110, 1995b.).

[9] = Mice, 50 mg/kg PO (Mice IP), 0.5 hr
[10] = Mice, 50 mg/kg PO (Mice IP), 4.0 hr

With `C#Cc1ccc2c(c1)C(c1ccccn1)=NCc1c(C(=O)OCC)ncn1-2` [Hz166 (106), 8-Acetylenyl-6-pyridin-2-yl-4H-benzo[f]imidazo[1,5-a][1,4]diazepine-3-carboxylic acid ethyl ester] the “TOX (Rotorod Test), animals toxic/tested” value ([1]; Mice IP, 100 mg/kg, 0.5 hr) was 0/8, the “TOX (Rotorod Test), animals toxic/tested” value ([1]; Mice IP, 100 mg/kg, 4.0 hr) was 0/4 and the “TD50 TOX” value ([1]; Mice IP, rotorod) was over 500 mg/kg. For the same molecule, the “TOX (Rotorod Test), animals toxic/tested” value [1, 9] was 0/4, the “TOX (Rotorod Test), animals toxic/tested” value [1, 10] was 0/4 and the “Tox, animals toxic/tested” value [2] was 0/8^a. The “Afterdischarge Duration, Drug (Low-High)” value ([2]; pre-drug 47-61) was 59- s, the “6 Hz, animals protected/tested” value ([3]; 44 mA, 0.5 hr) was 1/4 and the “6 Hz, animals protected/tested” value ([3]; 44 mA, 1.0 hr) was 1/4. For the same molecule, the “6 Hz, animals protected/tested” value ([3]; 44 mA, 2.0 hr) was 0/4, the “6 Hz, animals protected/tested” value ([3]; 44 mA, 4 hr) was 0/4 and the “6 Hz, animals protected/tested” value ([3]; 44 mA, […]) was 4/4. It also gave an ED50 ([3]; 32 mA, read-out: ED50 32 mA (6 Hz test)) of 25.8 mg/kg, an ED50 ([3]; 44 mA, read-out: ED50 44 mA (6 Hz test)) of 115 mg/kg and a TD50 [4] of 95.3 mg/kg. For the same molecule, the “TOX (Rotorod Test), animals toxic/tested” value ([5]; 0.5 hr) was 0/8, the “TOX (Rotorod Test), animals toxic/tested” value ([5]; 4.0 hr) was 0/8 and the “Tox, animals toxic/tested” value ([5]; Rat PO, 0.5 h) was 0/4. For the same molecule, the “Tox, animals toxic/tested” value ([5]; Rat PO, 1.0 h) was 0/4, the “Tox, animals toxic/tested” value ([5]; Rat PO, 2.0 h) was 0/4 and the “Tox, animals toxic/tested” value ([5]; Rat PO, 4.0 h) was 0/4. The “Tox, animals toxic/tested” value ([5]; Rat PO, […]) was 0/4, the “TD50 TOX” value ([5]; Rat PO, abnormal gait) was over 500 mg/kg and the “motor impairment / sedative or locomotor effects” value ([5]; rats, oral administration, up to 500 mg/kg) was “No motor impairment”. For the same molecule, the “MES, animals protected/tested” value ([6]; Mice IP, 100 mg/kg, 0.5 hr) was 0/3, the “MES, animals protected/tested” value ([6]; Mice IP, 100 mg/kg, 4.0 hr) was 0/3 and the “MES, animals protected/tested” value [6, 9] was 1/4. The “MES, animals protected/tested” value [6, 10] was 0/4, the ED50 ([6]; Mus musculus, Mice IP) was over 300 mg/kg and the “mice protected against scMet induced seizures” value ([7]; Mice IP, 100 mg/kg, 0.5 hr) was 60%. The “scMet, animals protected/tested” value ([7]; Mice IP, 100 mg/kg, 0.5 hr) was 3/5, the “scMet, animals protected/tested” value ([7]; Mice IP, 100 mg/kg, 4.0 hr) was 0/1 and the “scMet, animals protected/tested” value [7, 9] was 4/4. For the same molecule, the “scMet, animals protected/tested” value [7, 10] was 0/4, the ED50 ([7]; Mus musculus, Mice IP) was 16.3 mg/kg and the ED50 [8] was over 250 mg/kg. The “MES, animals protected/tested” value ([8]; 0.5 h) was 1/4, the “MES, animals protected/tested” value ([8]; 1.0 h) was 0/4 and the “MES, animals protected/tested” value ([8]; 2.0 h) was 0/4. For the same molecule, the “MES, animals protected/tested” value ([8]; 4.0 h) was 0/4 and the “MES, animals protected/tested” value ([8]; […]) was 0/4.

— US20100261711A1, “SELECTIVE ANTICONVULSANT AGENTS AND THEIR USES” (WiSys Technology Foundation, priority 2009, published 2010)
